For assay [1], the target named is T1, serotonin reuptake ([3H]-5-HT uptake into rat cortical synaptosomes) (Rattus norvegicus, UniProt P31652).
T1 construct: Whole brains from male Wistar rats (125-225 g), excluding cerebellum, are homogenized; from tissue; host or cells: synaptosomal fraction of whole brain (excluding cerebellum) from male Wistar rats
The assay is described as follows: [3H]-5-HT uptake into rat cortical synaptosomes. Format: biochemical. To be noted: result in words. On the procedure:
Measurements of [^3H]-5-HT Uptake into Rat Cortical Synaptosomes.
Whole brains from male Wistar rats (125-225 g), excluding cerebellum, are homogenized in 0.32 M sucrose supplemented with 1 mM nialamid with a glass/teflon homogenizer. The homogenate is centrifuged at 600×g for 10 min at 4° C. The pellet is discarded and the supernatant is centrifuged at 20.000×g for 55 min. The final pellet is homogenized (20 sec) in this assay buffer (0.5 mg original tissue/well). Test compounds (or buffer) and 10 nM [^3H]-5-HT are added to 96 well plates and shaken briefly. 10 Composition of assay buffer: 123 mM NaCl, 4.82 mM KCl, 0.973 mM CaCl2, 1.12 mM MgSO4, 12.66 mM Na2HPO4, 2.97 mM NaH2PO4, 0.162 mM EDTA, 10 mM glucose and 1 mM ascorbic acid. Buffer is oxygenated with 95% 02/5% C02 for 10 min at 37° C. and pH is adjusted 7.4. The incubation is started by adding tissue to a final assay volume of 0.2 mL. After 15 min incubation with radioligand at 37° C., samples are filtered 15 directly on Unifilter GF/C glass fiber filters (soaked for 1 hour in 0.1% polyethylenimine) under vacuum and immediately washed with 3×0.2 ml assay buffer. Non-specific uptake is determined using citalopram (10 μM final concentration). Citalopram is included as reference in all experiments as dose-response curve.

The target of assay [2] is T2, norepinephrine uptake ([3H]-noradrenaline uptake into rat cortical synaptosomes) (Rattus norvegicus, UniProt Q9WTR4).
T2 construct: Fresh cortex from male Wistar rats (125-225 g) are homogenized in 0.4M sucrose; from tissue; host or cells: synaptosomal fraction of fresh cortex from male Wistar rats
The assay is described as follows: [3H]Noradrenaline uptake into rat cortical synaptosomes. To be noted: result in words. Format: biochemical. As for the experimental part: Measurements of [^3 H]Noradrenaline Uptake into Rat Cortical Synaptosomes.
Fresh cortex from male Wistar rats (125-225 g) are homogenized in 0.4M sucrose with a glass/teflon homogenizer. The homogenate is centrifuged at 600×g for 10 min at 4° C. The pellet is discarded and the supernatant is centrifuged at 20.000×g for 55 min. The final pellet is homogenized (20 sec) in this assay buffer (6 mg original tissue/mL=[…]). Test compounds (or buffer) and 10 nM [^3H]-noradrenaline are added to deep 96 well plates and shaken briefly. Composition of assay buffer: 123 mM NaCl, 4.82 mM 1Cl, 0.973 mM CaCl2, 1.12 mM MgSO4, 12.66 MM Na2HPO4, 2.97 MM NaH2PO4, 0.162 mM EDTA, 10 mM glucose and 1 mM ascorbic acid. Buffer is oxygenated with 95% 02/5% C02 for 10 min at 37° C. and pH is adjusted 7.4. The incubation is started by adding tissue to a final assay volume of 1 ml. After 15 min incubation with radioligand at 37° C., samples are filtered directly on Unifilter GF/C glass fiber filters (soaked for 1 hour in 0.1% polyethylenimie) under vacuum and immediately washed with 3×1 mL assay buffer. Non-specific uptake is determined using talsupram ([…] final concentration). Duloxetine is included as reference in all experiments as dose-response curve.

T2 sequence (Q9WTR4 1-597): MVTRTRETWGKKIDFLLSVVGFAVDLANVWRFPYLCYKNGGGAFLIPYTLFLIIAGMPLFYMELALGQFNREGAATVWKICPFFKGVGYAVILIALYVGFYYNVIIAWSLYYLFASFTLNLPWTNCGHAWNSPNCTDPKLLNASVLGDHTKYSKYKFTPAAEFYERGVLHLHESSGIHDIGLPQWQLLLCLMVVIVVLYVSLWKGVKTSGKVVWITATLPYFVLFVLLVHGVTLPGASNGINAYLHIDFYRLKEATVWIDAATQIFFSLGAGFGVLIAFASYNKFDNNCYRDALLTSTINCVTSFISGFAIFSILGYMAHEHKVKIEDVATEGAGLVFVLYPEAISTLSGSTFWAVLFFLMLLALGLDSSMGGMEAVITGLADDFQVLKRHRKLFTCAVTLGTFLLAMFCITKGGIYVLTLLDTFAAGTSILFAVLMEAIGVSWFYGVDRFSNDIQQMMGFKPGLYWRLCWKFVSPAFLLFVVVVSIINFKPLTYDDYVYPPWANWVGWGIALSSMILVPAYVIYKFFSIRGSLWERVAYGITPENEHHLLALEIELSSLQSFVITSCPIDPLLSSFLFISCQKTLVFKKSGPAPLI
T1 sequence (P31652 whole entry): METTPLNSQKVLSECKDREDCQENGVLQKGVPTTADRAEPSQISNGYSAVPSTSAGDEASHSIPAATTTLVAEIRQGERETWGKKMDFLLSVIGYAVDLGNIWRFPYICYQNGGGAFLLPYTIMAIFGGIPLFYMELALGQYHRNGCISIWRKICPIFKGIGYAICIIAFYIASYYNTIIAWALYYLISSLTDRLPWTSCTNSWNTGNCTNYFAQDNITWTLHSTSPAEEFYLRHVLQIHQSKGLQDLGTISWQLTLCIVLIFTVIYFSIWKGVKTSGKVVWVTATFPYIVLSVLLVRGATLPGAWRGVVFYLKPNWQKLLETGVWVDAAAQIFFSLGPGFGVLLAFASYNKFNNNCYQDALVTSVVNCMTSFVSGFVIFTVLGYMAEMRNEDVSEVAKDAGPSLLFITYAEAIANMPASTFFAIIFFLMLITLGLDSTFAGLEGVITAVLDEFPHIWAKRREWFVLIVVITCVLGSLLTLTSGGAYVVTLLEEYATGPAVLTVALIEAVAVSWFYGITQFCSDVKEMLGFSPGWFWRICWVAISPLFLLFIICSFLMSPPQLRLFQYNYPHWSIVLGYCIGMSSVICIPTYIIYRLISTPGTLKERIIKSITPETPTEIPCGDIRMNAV

On to `Cc1ccc(Oc2ccccc2C2=CCNCC2)c(C)c1` [1a, 4-[2-(2,4-Dimethylphenoxy)phenyl]-1,2,3,6-tetrahydropyridine], for which the serotonin reuptake inhibition entry in assay [1] is on record as “did show serotonin reuptake inhibition”. Besides, in assay [2], the norepinephrine uptake inhibition result is reported as “did not show norepinephrine uptake inhibition”.

Turning to `Clc1ccc(Oc2ccccc2C2=CCNCC2)cc1` [1b, 4-[2-(4-Chlorophenoxy)phenyl]-1,2,3,6-tetrahydropyridine], the serotonin reuptake inhibition entry in assay [1] is “did show serotonin reuptake inhibition”. Also, the norepinephrine uptake inhibition result in assay [2] was “did not show norepinephrine uptake inhibition”.

`Cc1cc(F)ccc1Oc1ccccc1C1=CCNCC1` [1c, 4-[2-(4-Fluoro-2-methylphenoxy)phenyl]-1,2,3,6-tetrahydropyridine]: the serotonin reuptake inhibition entry in assay [1] is reported as “did show serotonin reuptake inhibition”. In assay [2], the norepinephrine uptake inhibition entry was “did not show norepinephrine uptake inhibition”.

Regarding `Fc1ccc(Oc2ccccc2C2=CCNCC2)cc1` [1d, 4-[2-(4-Fluorophenoxy)phenyl]-1,2,3,6-tetrahydropyridine], in assay [1], the serotonin reuptake inhibition entry was “did show serotonin reuptake inhibition”. For the same compound, the norepinephrine uptake inhibition result in assay [2] was “did not show norepinephrine uptake inhibition”.

Take `Cc1ccc(Oc2ccccc2C2=CCNCC2)cc1` [1e, 4-[2-(4-Methylphenoxy)phenyl]-1,2,3,6-tetrahydropyridine]: the serotonin reuptake inhibition entry in assay [1] is listed as “did show serotonin reuptake inhibition”. In assay [2], the norepinephrine uptake inhibition entry was “did not show norepinephrine uptake inhibition”.

As for `COc1ccc(Oc2ccccc2C2=CCNCC2)cc1` [1f, 4-[2-(4-Methoxyphenoxy)phenyl]-1,2,3,6-tetrahydropyridine], in assay [1], the serotonin reuptake inhibition entry was “did show serotonin reuptake inhibition”. Also, the norepinephrine uptake inhibition result in assay [2] is on record as “did not show norepinephrine uptake inhibition”.

With `Cc1ccc(Oc2ccccc2C2CCNCC2)cc1C` [3h, 4-[2-(3,4-Dimethyl-phenoxy)-phenyl]-piperidine], the serotonin reuptake inhibition result in assay [1] is “did show serotonin reuptake inhibition”. Besides, in assay [2], the norepinephrine uptake inhibition result is reported as “did not show norepinephrine uptake inhibition”.

Consider `Cc1cc(Oc2ccccc2C2CCNCC2)c(C)c(C)c1C` [3i, 4-[2-(2,3,4,5-Tetramethyl-phenoxy)-phenyl]-piperidine], for which, in assay [1], the serotonin reuptake inhibition entry is listed as “did show serotonin reuptake inhibition”. Besides, in assay [2], the norepinephrine uptake inhibition result is listed as “did not show norepinephrine uptake inhibition”.

`COc1ccc(Oc2ccccc2C2CCNCC2)cc1OC` [3m, 4-[2-(3,4-Dimethoxy-phenoxy)-phenyl]-piperidine]: the serotonin reuptake inhibition result in assay [1] is recorded as “did show serotonin reuptake inhibition”. Besides, the norepinephrine uptake inhibition result in assay [2] is reported as “did not show norepinephrine uptake inhibition”.

The values are drawn from patent US20060293360A1, “4-(2-Phenyloxyphenyl)-piperidine or-1,2,3,6-tetrahydropyridine derivatives as serotonin reuptake inhibitors” (H. Lundbeck A/S, priority 2003, published 2006).
